Laboratory results taken from paper PMC2010749, “Cytotoxic and clastogenic effects of soluble and insoluble compounds containing hexavalent and trivalent chromium” (British Journal of Cancer, 1981).
Read-outs that look alike come from different tables or passages of the source.

Legend:
[1] = tested on: BHK 21 Syrian hamster fibroblast line; assay: DNA, RNA and protein syntheses in BHK monolayers exposed to filtered medium preincubated with Cr compounds; assay type: cell-based; conditions: cells exposed 24 h;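 also: DNA, RNA and protein synthesis in BHK cultures assessed by incorporation of labelled precursors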
Description: (§1) Cell growth and labelling.-The reduction in cell growth, based on the nucleic acid content (DNA + RNA) of treated cultures, and the inhibition of DNA, RNA and protein syn- thesis, based on the incorporation of labelled precursors, were determined, to evaluate the cytotoxic effects of Cr compounds in BHK cell cultures. […] Three to four thousand cells were then examined for each dose level and each time interval, and the mitotic index (the ratio of all mitoses to the total number of cells) and the frequencies of each mitotic phase (the ratios of cells in each phase to total mitoses) were determined. […] Chromium compounds and cell treatments.- The tested compounds of Cr(VI) and Cr(III) and their physico-chemical properties are listed in Table I. In many experiments in which most of them were highly insoluble or only partially soluble (see Tables I, IV, V), Cr compounds were directly suspended in the growth medium used for treatments. […] The cytotoxic and clastogenic effects were usually deter- mined just at the end of Cr treatments, but sometimes the treated cells were washed with HBSS and incubated with normal growth medium, so that the effects of Cr were deter- mined at different times after the end of treatment (see Fig. 3 and Table VII).

[2] = tested on: HEp-2 human epithelial-like line; conditions: 2 h exposure to medium preincubated 2 days with 0.5 mg/ml in presence of BHK cells
Description: as §1

[3] = tested on: BHK 21 Syrian hamster fibroblast line; assay: DNA, RNA and protein syntheses in BHK cells, Cr compounds added directly to medium; assay type: cell-based; conditions: 48 h in MEM; 0.5/0.15/0.05 mg/ml (one value for all three)
Description: as §1

[4] = tested on: CHO Chinese hamster fibroblast line; assay: Cell growth of CHO cultures (DNA + RNA content); assay type: cell-based; conditions: 32 h in MEM; 0.3 µg/ml
Description: as §1

[5] = Solubility of chromium compounds (Table I)
Description: (§2) Cell growth and labelling.-The reduction in cell growth, based on the nucleic acid content (DNA + RNA) of treated cultures, and the inhibition of DNA, RNA and protein syn- thesis, based on the incorporation of labelled precursors, were determined, to evaluate the cytotoxic effects of Cr compounds in BHK cell cultures. […] Three to four thousand cells were then examined for each dose level and each time interval, and the mitotic index (the ratio of all mitoses to the total number of cells) and the frequencies of each mitotic phase (the ratios of cells in each phase to total mitoses) were determined. […] Chromium compounds and cell treatments.- The tested compounds of Cr(VI) and Cr(III) and their physico-chemical properties are listed in Table I. In many experiments in which most of them were highly insoluble or only partially soluble (see Tables I, IV, V), Cr compounds were directly suspended in the growth medium used for treatments. In the experiments on the induction of chromosome aberrations and SCE in CHO cells, almost complete solubilization was obtained in N HCI for Cr(III) compounds and 0-5N NaOH for Cr(VI) compounds, after which they were diluted with MEM to the final concentrations specified in Table IX. […] The cytotoxic and clastogenic effects were usually deter- mined just at the end of Cr treatments, but sometimes the treated cells were washed with HBSS and incubated with normal growth medium, so that the effects of Cr were deter- mined at different times after the end of treatment (see Fig. 3 and Table VII).

[6] = tested on: BHK 21 Syrian hamster fibroblast line; assay: Cell growth of BHK cultures (DNA + RNA content), Cr compounds added directly to medium; assay type: cell-based; conditions: 48 h in MEM; 0.5/0.15/0.05 mg/ml (one value for all three)
Description: as §2

[7] = tested on: BHK 21 Syrian hamster fibroblast line; conditions: range in 4 experiments
Description: as §1

[8] = tested on: CHO Chinese hamster fibroblast line; conditions: 0.1 µg/ml water-soluble Cr(VI) (0.3 µg/ml of salt)
Description: Cell growth and labelling.-The reduction in cell growth, based on the nucleic acid content (DNA + RNA) of treated cultures, and the inhibition of DNA, RNA and protein syn- thesis, based on the incorporation of labelled precursors, were determined, to evaluate the cytotoxic effects of Cr compounds in BHK cell cultures. […] Three to four thousand cells were then examined for each dose level and each time interval, and the mitotic index (the ratio of all mitoses to the total number of cells) and the frequencies of each mitotic phase (the ratios of cells in each phase to total mitoses) were determined. […] Chromium compounds and cell treatments.- The tested compounds of Cr(VI) and Cr(III) and their physico-chemical properties are listed in Table I. In many experiments in which most of them were highly insoluble or only partially soluble (see Tables I, IV, V), Cr compounds were directly suspended in the growth medium used for treatments. In the experiments on the induction of chromosome aberrations and SCE in CHO cells, almost complete solubilization was obtained in N HCI for Cr(III) compounds and 0-5N NaOH for Cr(VI) compounds, after which they were diluted with MEM to the final concentrations specified in Table IX. […]

[9] = preincubated 48 h with 0.05 mg/ml
[10] = preincubated 48 h with 0.15 mg/ml
[11] = preincubated 48 h with 0.5 mg/ml

[K+].[K+].[O]=[Cr](=[O])([O-])[O][Cr](=[O])(=[O])[O-] [Potassium dichromate]
DNA synthesis, preinc. in MEM [1, 9]: 24 % of controls | DNA synthesis, preinc. in MEM+BHK [1, 9]: 35 % of controls | Protein synthesis, preinc. in MEM [1, 9]: 100 % of controls | Protein synthesis, preinc. in MEM+BHK [1, 9]: 100 % of controls | RNA synthesis, preinc. in MEM [1, 9]: 90 % of controls | RNA synthesis, preinc. in MEM+BHK [1, 9]: 100 % of controls | DNA synthesis, preinc. in MEM [1, 10]: 4 % of controls | DNA synthesis, preinc. in MEM+BHK [1, 10]: 16 % of controls | Protein synthesis, preinc. in MEM [1, 10]: 68 % of controls | Protein synthesis, preinc. in MEM+BHK [1, 10]: 100 % of controls | RNA synthesis, preinc. in MEM [1, 10]: 42 % of controls | RNA synthesis, preinc. in MEM+BHK [1, 10]: 64 % of controls | DNA synthesis, preinc. in MEM [1, 11]: 4 % of controls | DNA synthesis, preinc. in MEM+BHK [1, 11]: 7 % of controls | Protein synthesis, preinc. in MEM [1, 11]: 52 % of controls | Protein synthesis, preinc. in MEM+BHK [1, 11]: 69 % of controls | RNA synthesis, preinc. in MEM [1, 11]: 39 % of controls | RNA synthesis, preinc. in MEM+BHK [1, 11]: 49 % of controls | Mitotic block (% increase of abnormal metaphases 2-4 h after treatment) [2]: +++ (+ + + (> 100%)) | Mitotic inhibition, early (% reduction of normal prophases at the end of treatment) [2]: +++ (+ + + (> 70%)) | Mitotic inhibition, late (% reduction of normal prophases 24 h after treatment) [2]: +++ (+ + + (> 70%)) | Caryological alterations ([2]; grades not defined): ~+ | DNA synthesis [3]: 0 % of controls | Protein synthesis [3]: 0 % of controls | RNA synthesis [3]: 0 % of controls | Cell growth [4]: 83 % control | Solubility in water [5]: High | Cell growth [6]: 0 % of controls | Length of treatment giving 50% inhibition of RNA synthesis ([7]; K2Cr2O7 10 µg/ml in HBSS): 1 to 2 h | Length of treatment giving 50% inhibition of protein synthesis ([7]; K2Cr2O7 10 µg/ml in HBSS): 3 to 5 h | Length of treatment giving > 90% inhibition of DNA synthesis ([7]; K2Cr2O7 10 µg/ml in HBSS): 2 to 3 h | Length of treatment giving > 90% inhibition of RNA synthesis ([7]; K2Cr2O7 10 µg/ml in HBSS): 6 to 7 h | Length of treatment giving > 90% inhibition of protein synthesis ([7]; K2Cr2O7 10 µg/ml in HBSS): 8 to 10 h | Length of treatment giving 50% inhibition of DNA synthesis ([7]; K2Cr2O7 10 µg/ml in MEM): 0.5 to 1.0 h | Length of treatment giving 50% inhibition of RNA synthesis ([7]; K2Cr2O7 10 µg/ml in MEM): 2 to 4 h | Length of treatment giving 50% inhibition of protein synthesis ([7]; K2Cr2O7 10 µg/ml in MEM): 5 to 9 h | Length of treatment giving > 90% inhibition of DNA synthesis ([7]; K2Cr2O7 10 µg/ml in MEM): 2 to 3 h | Length of treatment giving > 90% inhibition of RNA synthesis ([7]; K2Cr2O7 10 µg/ml in MEM): > 10 h | Length of treatment giving > 90% inhibition of protein synthesis ([7]; K2Cr2O7 10 µg/ml in MEM): > 10 h | Length of treatment giving 50% inhibition of DNA synthesis ([7]; K2Cr2O7 100 µg/ml in MEM): 0 to 25 h | Length of treatment giving 50% inhibition of protein synthesis ([7]; K2Cr2O7 100 µg/ml in MEM): 1 to 3 h | Length of treatment giving > 90% inhibition of DNA synthesis ([7]; K2Cr2O7 100 µg/ml in MEM): 0 to 75 h | Length of treatment giving > 90% inhibition of RNA synthesis ([7]; K2Cr2O7 100 µg/ml in MEM): 5 to 7 h | Length of treatment giving > 90% inhibition of protein synthesis ([7]; K2Cr2O7 100 µg/ml in MEM): 6 to 10 h | Mean number of chromosome aberrations relative to control [8]: 2-3 times the control values
